In publication PMC13022995 (Environmental science & technology, 2025):
Like-named read-outs stand apart in the source and are kept apart here.

Assays:
HepG2 cells = format: cell-based, human
p53RE-bla HCT116 cells = format: cell-based, human
[1] = system: liver, renal, bladder, and lung cells
[2] = system: hTERT-MSCs and aortic ECs (TeloHAECs) co-culture; format: cell-based, human

## O=[As]O[As]=O (stereo not drawn) [arsenic oxide]
HepG2 cells; HepG2 cells
  ROS induction: not detected

## O.O.O.O.O=S(=O)([O-])[O-].[Be+2] [beryllium sulfate tetrahydrate]
HepG2 cells; HepG2 cells
  ROS induction: not detected
p53RE-bla HCT116 cells
  p53 activation: activated p53

## CC(=O)[O-].CC(=O)[O-].O.O.[Cd+2] [cadmium acetate dihydrate, Cadmium acetate dihydrate]
[1]
  cytotoxicity of single compound: cytotoxic by themselves
[2]
  angiogenesis induction: independently induce angiogenesis

## [Cl][Cd][Cl] [cadmium chloride]
[1]
  cytotoxicity of single compound: cytotoxic by themselves
[2]
  angiogenesis induction: independently induce angiogenesis

## O.O.O.O.O=[N+]([O-])[O-].O=[N+]([O-])[O-].[Cd+2] [cadmium nitrate tetrahydrate, Cadmium nitrate tetrahydrate]
HepG2 cells; among components of Mixture 1, Supporting Table 3
  oxidative stress-inducing capability: exhibited oxidative stress-inducing capability
[1]
  cytotoxicity of single compound: cytotoxic by themselves
[2]
  angiogenesis induction: independently induce angiogenesis

## CC(=O)[O-].CC(=O)[O-].O.O.O.[Pb+2] [lead(II) acetate trihydrate]
[1]
  cytotoxicity of single compound: cytotoxic by themselves

## [Cl][Pb][Cl] [lead(II) chloride, Lead(II) chloride]
[1]
  cytotoxicity of single compound: cytotoxic by themselves
[2]
  angiogenesis induction: induced angiogenesis

## O.O.O.O.O.O.O=S(=O)([O-])[O-].[Ni+2] [nickel sulfate, nickel(II) sulfate hexahydrate]
HepG2 cells
  ROS induction: not detected

## O=[N+]([O-])c1ccc([As](=O)(O)O)cc1 [nitarsone, Nitarsone]
[2]
  angiogenesis induction: induced angiogenesis
